The source of these data is patent publication EP1097196B2, “GL[…]” (priority 1998, dated 2000).

Test in all cases: Specific activity as kcat on purified enzyme
Common to all, as to type: biochemical
What all share (details): pH 4.3, 37°C, purified sample

In experiment [1] the test system is Aspergillus niger glucoamylase AMG G2 (SEQ ID NO: 2) variant G127A. On the procedure:
(§1) Maltose: 29mM (1g maltose in 100ml 50mM sodium acetate, pH 4.5) (Sigma) Maltoheptaose: 10 mM, 115 mg/10 ml (Sigma)
(§2) Determining Specific Activity As kcat (sec.^-1).
(§3) 750 microL substrate (1% maltose, 50 mM Sodium acetat, pH 4.3) is incubated 5 minutes at selected temperature, such as 37°C or 60°C.
(§4) 50 microL enzyme diluted in sodium acetate is added. Aliquots of 100 microL are removed after 0, 3, 6, 9 and 12 minutes and transferred to 100 microL 0.4 M Sodium hydroxide to stop the reaction. A blank is included. 20 microL is transferred to a Micro titre plates and 200 microL GOD-Perid solution is added. Absorbance is measured at 650 nm after 30 minutes incubation at room temperature. Glucose is used as standard and the specific activity is calculated as kcat (sec.^-1).
(§5) AMG G2 variants were constructed as described above in Example 1. The specific activity as kcat were measured on purified samples at pH 4.3, 37°C, using maltose and maltohepatose as substrate as described in the "Materials & Methods" section above. The specific activity as AGU/mg were also measured at pH 4.3, 37°C, using maltose as substrate as described in the "Materials & Methods" section above.

Experiment [2] concerns Aspergillus niger glucoamylase AMG G2 (SEQ ID NO: 2) variant G207N. On the procedure:
as §1, §2, §3, §4, §5

For experiment [3], the system named is Aspergillus niger glucoamylase AMG G2 (SEQ ID NO: 2) variant N110T. On the procedure:
as §1, §2, §3, §4, §5

Experiment [4] has as its system Aspergillus niger glucoamylase AMG G2 (SEQ ID NO: 2) variant S119P. On the procedure:
as §1, §2, §3, §4, §5

The test system of experiment [5] is Aspergillus niger glucoamylase AMG G2 (SEQ ID NO: 2) variant V111P. On the procedure: as §1, §2, §3, §4, §5
For experiment [6], the system named is Aspergillus niger glucoamylase AMG G2 (wt), SEQ ID NO: 2. The method, then:
as §1, §2, §3, §4, §5

For `OC[C@H]1O[C@H](O[C@H]2[C@H](O)[C@@H](O)C(O)O[C@@H]2CO)[C@H](O)[C@@H](O)[C@@H]1O` (mixture of isomers) [Maltose], the “Kcat (Maltose)” value amounted to 21.0 sec.-1 in experiment [1] (substrate maltose); 30.5 sec.-1 in experiment [2] (substrate maltose); 9.7 sec.-1 in experiment [3] (substrate maltose); 6.2 sec.-1 in experiment [4] (substrate maltose); 12.0 sec.-1 in experiment [5] (substrate maltose); 6.0 sec.-1 in experiment [6] (substrate maltose).

As for `OC[C@H]1O[C@H](O[C@H]2[C@H](O)[C@@H](O)[C@@H](O[C@H]3[C@H](O)[C@@H](O)[C@@H](O[C@H]4[C@H](O)[C@@H](O)[C@@H](O[C@H]5[C@H](O)[C@@H](O)[C@@H](O[C@H]6[C@H](O)[C@@H](O)[C@@H](O[C@H]7[C@H](O)[C@@H](O)C(O)O[C@@H]7CO)O[C@@H]6CO)O[C@@H]5CO)O[C@@H]4CO)O[C@@H]3CO)O[C@@H]2CO)[C@H](O)[C@@H](O)[C@@H]1O` (stereo partly drawn) [Maltoheptaose], the “Kcat (Maltoheptaose)” value in experiment [1] (substrate maltoheptaose) amounted to 40.0 sec.-1; in experiment [2] (substrate maltoheptaose), 36.3 sec.-1; in experiment [3] (substrate maltoheptaose), 27.8 sec.-1; in experiment [4] (substrate maltoheptaose) it was 44.0 sec.-1; in experiment [5] (substrate maltoheptaose), 43.2 sec.-1; in experiment [6] (substrate maltoheptaose) it was 38 sec.-1.
